Experimental data as given in ChEMBL document CHEMBL4196076, “An access to a library of novel triterpene derivatives with a promising pharmacological potential by Ugi and Passerini multicomponent reactions” (Eur J Med Chem, 2018).

Assays:
A2780 = assay: Cytotoxicity against human A2780 cells after 96 hrs by sulforhodamine-B assay; type: functional, cell-based; settings: A2780, 96 h
A549 = assay: Cytotoxicity against human A549 cells after 96 hrs by sulforhodamine-B assay; type: functional, cell-based; settings: A549, 96 h
518A2 = assay: Cytotoxicity against human 518A2 cells after 96 hrs by sulforhodamine-B assay; type: functional, cell-based; settings: 518A2, 96 h
NIH3T3 = assay: Cytotoxicity against mouse NIH/3T3 cells after 96 hrs by sulforhodamine-B assay; type: cell-based; settings: NIH3T3, 96 h
MCF7 = assay: Cytotoxicity against human MCF7 cells after 96 hrs by sulforhodamine-B assay; type: functional, cell-based; settings: MCF7, 96 h
HT-29 = assay: Cytotoxicity against human HT-29 cells after 96 hrs by sulforhodamine-B assay; type: functional, cell-based; settings: HT-29, 96 h
FaDu = assay: Cytotoxicity against human FADU cells after 96 hrs by sulforhodamine-B assay; type: functional, cell-based

| Structure (SMILES) | EC50 (A2780) [µM] | EC50 (A549) [µM] | EC50 (518A2) [µM] | EC50 (NIH3T3) [µM] | EC50 (MCF7) [µM] | EC50 (HT-29) [µM] | EC50 (FaDu) [µM] |
| --- | --- | --- | --- | --- | --- | --- | --- |
| CCCCNC(=O)CN(Cc1ccccc1)C(=O)[C@]12CCC(C)(C)C[C@H]1C1=CC[C@@H]3[C@@]4(C)CC[C@H](OC(C)=O)C(C)(C)[C@@H]4CC[C@@]3(C)[C@]1(C)CC2 | 3 | > 30 | > 30 | > 30 | 22.1 | > 30 | 22.7 |
| C=CCN(CC(=O)NC(C)(C)C)C(=O)[C@]12CCC(C)(C)C[C@H]1C1=CC[C@@H]3[C@@]4(C)CC[C@H](O)C(C)(C)[C@@H]4CC[C@@]3(C)[C@]1(C)CC2 | 10.5 | 27.7 | 24.4 | 15.5 | 7 | 9.9 | 26 |
| CC(=O)O[C@@H]1C[C@]2(C)[C@H]3CC=C4[C@@H]5CC(C)(C)CC[C@]5(C(=O)N(CC(=O)NC(C)(C)C)Cc5ccoc5)CC[C@@]4(C)[C@]3(C)CC[C@H]2C(C)(C)[C@H]1OC(C)=O | 0.4 | 3.5 | 3.9 | 7.3 | 4 | 3.4 | 3 |
| CCCCNC(=O)CN(Cc1ccoc1)C(=O)[C@]12CCC(C)(C)C[C@H]1C1=CC[C@@H]3[C@@]4(C)CC[C@H](OC(C)=O)C(C)(C)[C@@H]4CC[C@@]3(C)[C@]1(C)CC2 | 5.6 | 16.2 | 11.3 | > 30 | 13.9 | > 30 | 17.9 |
| CC(=O)O[C@H]1CC[C@]2(C)[C@H]3CC=C4[C@@H]5CC(C)(C)CC[C@]5(C(=O)N(C)CC(=O)NC(C)(C)C)CC[C@@]4(C)[C@]3(C)CC[C@H]2C1(C)C | 4.1 |  | 8.8 | 9.9 | 5.7 | 23.7 | 6.7 |
| CC1(C)CC[C@]2(C(=O)N(CC(=O)NCc3ccccc3)Cc3ccoc3)CC[C@]3(C)C(=CC[C@@H]4[C@@]5(C)CC[C@H](O)C(C)(C)[C@@H]5CC[C@]43C)[C@@H]2C1 | 13.2 | > 30 | > 30 | > 30 | 12.6 | > 30 | > 30 |
| CC1(C)CC[C@]2(C(=O)N(CC(=O)NCc3ccccc3)Cc3ccccc3)CC[C@]3(C)C(=CC[C@@H]4[C@@]5(C)CC[C@H](O)C(C)(C)[C@@H]5CC[C@]43C)[C@@H]2C1 | > 30 |  | > 30 | > 30 | > 30 | > 30 | > 30 |
| CC1(C)CC[C@]2(C(=O)N(CC(=O)NC(C)(C)C)Cc3ccccc3)CC[C@]3(C)C(=CC[C@@H]4[C@@]5(C)CC[C@H](O)C(C)(C)[C@@H]5CC[C@]43C)[C@@H]2C1 | 13.5 |  | 11.4 | 8.8 | 14.8 | 11.5 | 17.8 |
| CC(C)N(CC(=O)NCc1ccccc1)C(=O)[C@]12CCC(C)(C)C[C@H]1C1=CC[C@@H]3[C@@]4(C)CC[C@H](O)C(C)(C)[C@@H]4CC[C@@]3(C)[C@]1(C)CC2 | 15.4 |  | > 30 | > 30 | 19.4 | > 30 | > 30 |
| CC(=O)O[C@@H]1C[C@]2(C)[C@H]3CC=C4[C@@H]5CC(C)(C)CC[C@]5(C(=O)O)CC[C@@]4(C)[C@]3(C)CC[C@H]2C(C)(C)[C@H]1OC(C)=O | 10.5 | 18.9 |  | 12.2 | 1.6 | 25.5 | 21.3 |
| CC1(C)CC[C@]2(C(=O)N(CC(=O)NC(C)(C)C)Cc3cccc(F)c3)CC[C@]3(C)C(=CC[C@@H]4[C@@]5(C)CC[C@H](O)C(C)(C)[C@@H]5CC[C@]43C)[C@@H]2C1 | > 30 |  | > 30 | > 30 | > 30 | > 30 | > 30 |
| CCCCNC(=O)CN(Cc1ccoc1)C(=O)[C@]12CCC(C)(C)C[C@H]1C1=CC[C@@H]3[C@@]4(C)CC[C@H](O)C(C)(C)[C@@H]4CC[C@@]3(C)[C@]1(C)CC2 | 17.6 |  | > 30 | > 30 | 15.5 | 15.9 | > 30 |
| C=CCN(CC(=O)NCCCC)C(=O)[C@]12CCC(C)(C)C[C@H]1C1=CC[C@@H]3[C@@]4(C)CC[C@H](O)C(C)(C)[C@@H]4CC[C@@]3(C)[C@]1(C)CC2 | 19.3 |  | > 30 | > 30 | 21.3 | > 30 | > 30 |
| C=CCN(CC(=O)NCc1ccccc1)C(=O)[C@]12CCC(C)(C)C[C@H]1C1=CC[C@@H]3[C@@]4(C)CC[C@H](OC(C)=O)C(C)(C)[C@@H]4CC[C@@]3(C)[C@]1(C)CC2 | 6 |  | 18.9 | > 30 | 19.2 | > 30 | 15.5 |
